In PubChem BioAssay AID328 (DTP/NCI, 2004):
Several values for one entry are separate records, joined by “and”; a condition that tells them apart may be missing. Identical values can stand only once. Toxic doses and inconclusive results are not listed.

Tested on: BDF1 mice, P388 leukemia ip, median survival T/C
Assay: NCI In Vivo Anticancer Drug Screen. Data for tumor model P388 Leukemia (intraperitoneal) in B6D2F1 (BDF1) mice
Details: endpoint: median survival time, higher = longer survival
In short: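 Reported as T/C, where T is the survival measurement in dosed animals and C the same measurement in vehicle controls.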

[1] = dose: 100.0 mg/kg/injection, schedule: Q04DX003 (ip), vehicle: saline with Tween-80
[2] = dose: 200.0 mg/kg/injection, schedule: Q04DX003 (ip), vehicle: saline with Tween-80
[3] = dose: 400.0 mg/kg/injection, schedule: Q04DX003 (ip), vehicle: saline with Tween-80
[4] = dose: 100.0 mg/kg/injection, schedule: Q01DX001 (ip), vehicle: Klucel (hydroxypropylcellulose) (HPC)
[5] = dose: 200.0 mg/kg/injection, schedule: Q01DX001 (ip), vehicle: Klucel (hydroxypropylcellulose) (HPC)
[6] = dose: 400.0 mg/kg/injection, schedule: Q01DX001 (ip), vehicle: Klucel (hydroxypropylcellulose) (HPC)
[7] = dose: 100.0 mg/kg/injection, schedule: Q01DX009 (ip), vehicle: saline with Tween-80
[8] = dose: 200.0 mg/kg/injection, schedule: Q01DX009 (ip), vehicle: saline with Tween-80
[9] = dose: 400.0 mg/kg/injection, schedule: Q01DX009 (ip), vehicle: saline with Tween-80
[10] = dose: 12.5 mg/kg/injection, schedule: Q01DX009 (ip), vehicle: saline
[11] = dose: 12.5 mg/kg/injection, schedule: Q04DX003 (ip), vehicle: saline
[12] = dose: 25.0 mg/kg/injection, schedule: Q01DX009 (ip), vehicle: saline
[13] = dose: 25.0 mg/kg/injection, schedule: Q04DX003 (ip), vehicle: saline
[14] = dose: 50.0 mg/kg/injection, schedule: Q04DX003 (ip), vehicle: saline
[15] = dose: 100.0 mg/kg/injection, schedule: Q04DX003 (ip), vehicle: saline
[16] = dose: 200.0 mg/kg/injection, schedule: Q04DX003 (ip), vehicle: saline
[17] = dose: 50.0 mg/kg/injection, schedule: Q01DX010 (ip), vehicle: saline
[18] = dose: 100.0 mg/kg/injection, schedule: Q01DX010 (ip), vehicle: saline
[19] = dose: 12.5 mg/kg/injection, schedule: Q04DX003 (ip), vehicle: Klucel (hydroxypropylcellulose) (HPC)
[20] = dose: 12.5 mg/kg/injection, schedule: Q04DX003 (ip), vehicle: saline with Tween-80
[21] = dose: 25.0 mg/kg/injection, schedule: Q04DX003 (ip), vehicle: Klucel (hydroxypropylcellulose) (HPC)
[22] = dose: 50.0 mg/kg/injection, schedule: Q01DX009 (ip), vehicle: saline
[23] = dose: 50.0 mg/kg/injection, schedule: Q04DX003 (ip), vehicle: Klucel (hydroxypropylcellulose) (HPC)
[24] = dose: 50.0 mg/kg/injection, schedule: Q04DX003 (ip), vehicle: saline with Tween-80
[25] = dose: 100.0 mg/kg/injection, schedule: Q01DX009 (ip), vehicle: saline
[26] = dose: 200.0 mg/kg/injection, schedule: Q01DX009 (ip), vehicle: saline
[27] = dose: 50.0 mg/kg/injection, schedule: Q01DX009 (ip), vehicle: saline with Tween-80

SMILES: O=[N+]([O-])c1ccc(N2CCN(c3cccc(C(F)(F)F)c3)CC2)c([N+](=O)[O-])c1
- T/C [1]: 113 % of control
- T/C [2]: 100 % of control
- T/C [3]: 100 % of control

SMILES: O=C1NC(=O)C(c2ccccc2Cl)N1 (stereo unspecified)
- T/C [4]: 104 % of control
- T/C [5]: 112 % of control
- T/C [6]: 112 % of control

SMILES: c1cc[c]([Sn]([c]2ccccc2)([c]2ccccc2)[c]2ccccc2)cc1
- T/C [7]: 94 % of control
- T/C [8]: 94 % of control
- T/C [9]: 97 % of control

SMILES: CCOC(=O)c1c(N)c2cnn(C)c2[nH]c1=O
- T/C (dose: 100.0 mg/kg/injection, schedule: Q04DX002 (ip), vehicle: saline with Tween-80): 100 % of control
- T/C (dose: 200.0 mg/kg/injection, schedule: Q04DX002 (ip), vehicle: saline with Tween-80): 90 % of control
- T/C (dose: 400.0 mg/kg/injection, schedule: Q04DX002 (ip), vehicle: saline with Tween-80): 90 % of control

SMILES: N/C(=N\O)c1nn(C2OC(CO)C(O)C2O)c2ncnc(N)c12 (stereo unspecified)
- T/C [10]: 102 % of control
- T/C [11]: 115 % of control
- T/C [12]: 114 % of control
- T/C [13]: 105 % of control and 116 % of control
- T/C [14]: 110 % of control and 112 % of control
- T/C [15]: 105 % of control and 116 % of control
- T/C [16]: 112 % of control

SMILES: CCOC(=O)C(CCCCC(NC(C)=O)(C(=O)OCC)C(=O)OCC)(NC(C)=O)C(=O)OCC
- T/C [7]: 95 % of control
- T/C [8]: 100 % of control
- T/C [9]: 104 % of control

SMILES: O=C1CC(c2ccc(Br)cc2)N(c2ccc([As](=O)(O)O)cc2)C1=O (stereo unspecified)
- T/C (dose: 3.13 mg/kg/injection, schedule: Q01DX009 (ip), vehicle: saline with Tween-80): 90 % of control
- T/C (dose: 6.25 mg/kg/injection, schedule: Q01DX009 (ip), vehicle: saline with Tween-80): 109 % of control
- T/C (dose: 12.5 mg/kg/injection, schedule: Q01DX009 (ip), vehicle: saline with Tween-80): 109 % of control

SMILES: ClC[P+](c1ccccc1)(c1ccccc1)c1ccccc1
- T/C (dose: 3.0 mg/kg/injection, schedule: Q01DX009 (ip), vehicle: saline): 120 % of control
- T/C (dose: 6.0 mg/kg/injection, schedule: Q01DX009 (ip), vehicle: saline): 116 % of control
- T/C [11]: 100 % of control

SMILES: COc1cc(-c2ccc(Nc3ccccc3C(=O)O)c(OC)c2)ccc1Nc1ccccc1C(=O)O
- T/C [17]: 166 % of control
- T/C [18]: 158 % of control

SMILES: O=C(NCC(O)CCl)c1ccc([N+](=O)[O-])cc1 (stereo unspecified)
- T/C [4]: 100 % of control
- T/C [5]: 100 % of control
- T/C [6]: 110 % of control

SMILES: CC1C/C(=C\NC(N)=O)C(=O)O1 (stereo unspecified)
- T/C (dose: 100.0 mg/kg/injection, schedule: Q04DX003 (ip), vehicle: water): 103 % of control
- T/C (dose: 200.0 mg/kg/injection, schedule: Q04DX003 (ip), vehicle: water): 102 % of control
- T/C (dose: 400.0 mg/kg/injection, schedule: Q04DX003 (ip), vehicle: water): 103 % of control

SMILES: OCC1OCC(O)C(O)C1O (stereo unspecified)
- T/C (dose: 12.5 mg/kg/injection, schedule: Q01DX010 (ip), vehicle: saline): 91 % of control
- T/C (dose: 25.0 mg/kg/injection, schedule: Q01DX010 (ip), vehicle: saline): 108 % of control
- T/C (dose: 32.0 mg/kg/injection, schedule: Q03HX024 (ip), vehicle: saline): 95 % of control
- T/C [17]: 108 % of control
- T/C (dose: 64.0 mg/kg/injection, schedule: Q03HX024 (ip), vehicle: saline): 87 % of control
- T/C [18]: 91 % of control
- T/C (dose: 128.0 mg/kg/injection, schedule: Q03HX024 (ip), vehicle: saline): 100 % of control
- T/C (dose: 128.0 mg/kg/injection, schedule: Q04DX003 (ip), vehicle: saline): 87 % of control and 104 % of control
- T/C (dose: 200.0 mg/kg/injection, schedule: Q01DX010 (ip), vehicle: saline): 110 % of control
- T/C (dose: 256.0 mg/kg/injection, schedule: Q04DX003 (ip), vehicle: saline): 91 % of control and 100 % of control
- T/C (dose: 512.0 mg/kg/injection, schedule: Q04DX003 (ip), vehicle: saline): 90 % of control
- T/C (dose: 800.0 mg/kg/injection, schedule: Q01DX010 (ip), vehicle: saline): 115 % of control
- T/C (dose: 1024.0 mg/kg/injection, schedule: Q04DX003 (ip), vehicle: saline): 100 % of control

SMILES: COc1ccc(C=Nc2ccccc2N=Cc2ccc(OC)c(OC)c2)cc1OC
- T/C [7]: 113 % of control
- T/C [1]: 110 % of control
- T/C [8]: 100 % of control
- T/C [2]: 110 % of control
- T/C [9]: 100 % of control
- T/C [3]: 100 % of control

SMILES: CC(CN(C)C)CN1c2ccccc2Sc2ccccc21 (stereo unspecified)
- T/C (dose: 6.25 mg/kg/injection, schedule: Q01DX009 (ip), vehicle: saline): 100 % of control
- T/C (dose: 6.25 mg/kg/injection, schedule: Q04DX003 (ip), vehicle: saline): 100 % of control
- T/C [10]: 108 % of control and 90 % of control
- T/C [19]: 100 % of control
- T/C [20]: 110 % of control
- T/C [11]: 108 % of control
- T/C (dose: 25.0 mg/kg/injection, schedule: Q01DX009 (ip), vehicle: saline with Tween-80): 109 % of control
- T/C [12]: 112 % of control and 109 % of control
- T/C [21]: 124 % of control
- T/C [13]: 108 % of control
- T/C [22]: 108 % of control
- T/C [23]: 124 % of control
- T/C [24]: 89 % of control
- T/C [14]: 120 % of control

SMILES: CN(Nc1c([N+](=O)[O-])cc([N+](=O)[O-])cc1[N+](=O)[O-])c1ccc2ccccc2c1
- T/C (dose: 100.0 mg/kg/injection, schedule: Q01DX009 (ip), vehicle: Klucel (hydroxypropylcellulose) (HPC)): 120 % of control
- T/C (dose: 200.0 mg/kg/injection, schedule: Q01DX009 (ip), vehicle: Klucel (hydroxypropylcellulose) (HPC)): 105 % of control
- T/C (dose: 400.0 mg/kg/injection, schedule: Q01DX009 (ip), vehicle: Klucel (hydroxypropylcellulose) (HPC)): 110 % of control

SMILES: C[N+]1(C)C2CC(=O)CC1C1CC12 (stereo unspecified) (tested in a mixture with another compound)
- T/C [12]: 99 % of control
- T/C [22]: 106 % of control
- T/C [25]: 106 % of control
- T/C [26]: 106 % of control

SMILES: NC(Cc1ccc(O)c(I)c1)C(=O)O (stereo unspecified)
- T/C [12]: 109 % of control
- T/C [22]: 113 % of control
- T/C [14]: 110 % of control
- T/C [25]: 120 % of control
- T/C [15]: 110 % of control
- T/C [26]: 95 % of control
- T/C [16]: 115 % of control
- T/C (dose: 400.0 mg/kg/injection, schedule: Q04DX003 (ip), vehicle: saline): 110 % of control

SMILES: CC(C)(C)c1cc(C(C)(C)O)c2c(c1)C(C)(C)OS2(C)Cl (stereo unspecified)
- T/C [20]: 100 % of control
- T/C (dose: 25.0 mg/kg/injection, schedule: Q04DX003 (ip), vehicle: saline with Tween-80): 100 % of control
- T/C [24]: 96 % of control

SMILES: Cc1[nH]nc(-c2ccon2)c1N=O
- T/C [27]: 111 % of control
- T/C [7]: 113 % of control

SMILES: Cc1ccc(-c2nc3ccccc3c(=O)n2/N=C/c2ccc(Cl)cc2Cl)cc1
- T/C [27]: 100 % of control
- T/C [7]: 89 % of control
- T/C [8]: 90 % of control

SMILES: Cc1nnc(NS(=O)(=O)c2ccc(N=Nc3nc4[nH]c(N)nc(=S)c4[nH]3)cc2)s1
- T/C (dose: 5.5 mg/kg/injection, schedule: Q01DX009 (ip), vehicle: saline): 114 % of control
- T/C [19]: 95 % of control
- T/C [21]: 104 % of control
- T/C [23]: 100 % of control
- T/C (dose: 80.0 mg/kg/injection, schedule: Q01DX009 (ip), vehicle: Klucel (hydroxypropylcellulose) (HPC)): 155 % of control
- T/C (dose: 170.0 mg/kg/injection, schedule: Q01DX009 (ip), vehicle: saline): 172 % of control

SMILES: CC12CCC(C=C1N1CCOCC1)C(C)(C)O2 (stereo unspecified)
- T/C (dose: 50.0 mg/kg/injection, schedule: Q01DX005 (ip), vehicle: saline): 114 % of control
- T/C (dose: 100.0 mg/kg/injection, schedule: Q01DX005 (ip), vehicle: saline): 122 % of control
- T/C (dose: 200.0 mg/kg/injection, schedule: Q01DX005 (ip), vehicle: saline): 111 % of control
